Data published in ChEMBL document CHEMBL1142231, “Proline-rich tyrosine kinase 2 regulates osteoprogenitor cells and bone formation, and offers an anabolic treatment approach for osteoporosis” (Proc Natl Acad Sci U S A, 2007).
Calls of active or inactive are those of the source. The calls are words filed in the database; no cut-off is given here.

What was measured:
Rattus norvegicus [1] = experiment: Prevention of bone loss in ovariectomized Sprague-Dawley rat assessed as osteoclast surface of proximal tibia cancellous bone at 10 mg/kg, po administered daily for 28 days; assay type: functional
Mesenchymal stem cell = experiment: Increase in alkaline phosphatase activity in human mesenchymal stem cells; assay type: functional, cell-based
Rattus norvegicus [2] = experiment: Prevention of bone loss in ovariectomized Sprague-Dawley rat assessed as osteoclast surface of proximal tibia cancellous bone at 30 mg/kg, po administered daily for 28 days; assay type: functional
Rattus norvegicus [3] = experiment: Effect on bone resorption in ovariectomized Sprague-Dawley rat assessed as serum C-telopeptide degradation product at 10 mg/kg, po administered daily for 28 days; assay type: functional, organism-based; parameters: dose 10 mg/kg
Rattus norvegicus [4] = experiment: Effect on bone resorption in ovariectomized Sprague-Dawley rat assessed as serum C-telopeptide degradation product at 30 mg/kg, po administered daily for 28 days; assay type: functional, organism-based; parameters: dose 30 mg/kg
Rattus norvegicus [5] = experiment: Increase in bone formation in ovariectomized Sprague-Dawley rat assessed as mineral apposition rate of proximal tibia cancellous bone at 30 mg/kg, po administered daily for 28 days; assay type: functional
Rattus norvegicus [6] = experiment: Effect on bone metabolism in ovariectomized Sprague-Dawley rat assessed as bone formation rate of proximal tibia cancellous bone at 30 mg/kg, po administered daily for 28 days; assay type: functional
Rattus norvegicus [7] = experiment: Increase in bone formation in ovariectomized Sprague-Dawley rat assessed as mineralizing surface of proximal tibia cancellous bone at 30 mg/kg, po administered daily for 28 days; assay type: functional
Rattus norvegicus [8] = experiment: Increase in bone formation in ovariectomized Sprague-Dawley rat assessed as mineralizing surface of proximal tibia cancellous bone at 10 mg/kg, po administered daily for 28 days; assay type: functional
Rattus norvegicus [9] = experiment: Increase in bone formation in ovariectomized Sprague-Dawley rat assessed as mineral apposition rate of proximal tibia cancellous bone at 10 mg/kg, po administered daily for 28 days; assay type: functional
Rattus norvegicus [10] = experiment: Effect on bone metabolism in ovariectomized Sprague-Dawley rat assessed as bone formation rate of proximal tibia cancellous bone at 10 mg/kg, po administered daily for 28 days; assay type: functional
Rattus norvegicus [11] = experiment: Effect on bone turnover in po dosed ovariectomized Sprague-Dawley rat assessed as mineralizing surface of proximal tibia cancellous bone; assay type: functional
Rattus norvegicus [12] = experiment: Effect on bone metabolism in po dosed ovariectomized Sprague-Dawley rat assessed as bone formation rate of proximal tibia cancellous bone; assay type: functional
Rattus norvegicus [13] = experiment: Prevention of bone loss in po dosed ovariectomized Sprague-Dawley rat assessed as osteoclast surface of proximal tibia cancellous bone; assay type: functional

SMILES | Activity (Rattus norvegicus [1]) [%] | Activity (Mesenchymal stem cell) | Activity (Rattus norvegicus [2]) [%] | Activity (Rattus norvegicus [3]) | Activity (Rattus norvegicus [4]) | Activity (Rattus norvegicus [5]) [micrometer/day] | Activity (Rattus norvegicus [6]) [microm2/micrometer/d] | Activity (Rattus norvegicus [7]) [%] | Activity (Rattus norvegicus [8]) [%] | Activity (Rattus norvegicus [9]) [micrometer/day] | Activity (Rattus norvegicus [10]) [microm2/micrometer/d] | Activity (Rattus norvegicus [11]) [%] | Activity (Rattus norvegicus [12]) [microm2/micrometer/d] | Activity (Rattus norvegicus [13]) [%]
CN(c1ccccc1CNc1nc(Nc2ccc3c(c2)CC(=O)N3)ncc1C(F)(F)F)S(C)(=O)=O.Cl | 7.83 | Active | 6.13 | inactive | inactive | 1.96 | 291.43 | 40.6 | 36.81 | 1.77 | 240.17 |  |  | 
C#CC1(O)CC[C@H]2[C@@H]3CCc4cc(O)ccc4[C@H]3CC[C@@]21C (single isomer, unassigned) [ETHINYL ESTRADIOL] |  |  |  |  |  |  |  |  |  |  |  | 20.22 | 77.91 | 4.55
